The structures appear in SMILES notation.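 Five concentrations, 48 hours, 96-well plates. The concentration for 50% growth inhibition is given as GI50.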 Activity calls are given as the source filed them. No stated cut-off is given here; in the data, active = GI50 up to about 1.1 µM and inactive = higher.

Among the test systems are TK-10; SF-268; A549; OVCAR-5; K562; SK-MEL-28; 786-0; OVCAR-3; M14; SW-620; NCI-H226; OVCAR-4; CCRF-CEM; NCI-H460; RXF 393; HOP-62; HL-60; EKVX; SK-MEL-2.
Holding throughout (assay): NCI anticancer screen, dose series, 48 h

On to `CCC(=O)N(O)C(C)(C)C`, for which the GI50 in the assay on TK-10, in the assay with SF-268, in the assay with A549, in the assay on OVCAR-5, in the assay with K562 and with SK-MEL-28 was > 100 µM (inactive) each time. The GI50 in the assay on 786-0, with OVCAR-3, in the assay on M14, with SW-620, in the assay on NCI-H226 and in the assay on OVCAR-4 was > 100 µM (inactive) each time. The GI50 with CCRF-CEM, with NCI-H460, with RXF 393, in the assay on HOP-62 and in the assay with HL-60 was > 100 µM (inactive) in each case.
Regarding `O=[N+]([O-])c1ccc2nc(/C(=N/Nc3ccccc3)C(O)c3ccco3)c(O)nc2c1` (centres undefined), the GI50 is 25.4 µM (inactive) with SF-268; > 100 µM (inactive) in the assay with A549; > 100 µM (inactive) with K562; 39 µM (inactive) in the assay on EKVX; > 100 µM (inactive) with 786-0; > 100 µM (inactive) in the assay on M14. Also, the GI50 in the assay with SW-620 was > 100 µM (inactive); in the assay with NCI-H226 it was 15.7 µM (inactive); with OVCAR-4, > 100 µM (inactive); in the assay on CCRF-CEM, 27.2 µM (inactive); with NCI-H460 it was > 100 µM (inactive); in the assay on RXF 393 it was 29.5 µM (inactive). For the same compound, the values for the GI50 in the assay with HOP-62, in the assay with HL-60 and in the assay with SK-MEL-2 were 37.6 µM (inactive), 19.9 µM (inactive) and > 100 µM (inactive), respectively.
Consider `COc1cccc2c1CCc1ccccc1CC2=O`, for which the GI50 in the assay with TK-10, with SF-268, in the assay with A549, with OVCAR-5, in the assay on K562 and in the assay on EKVX was > 100 µM (inactive) each time. In addition, the GI50 in the assay on SK-MEL-28, in the assay with 786-0, in the assay on OVCAR-3, in the assay with M14, in the assay with SW-620 and in the assay with NCI-H226 was > 100 µM (inactive) each time. The GI50 in the assay with OVCAR-4 is 39.2 µM (inactive); in the assay with CCRF-CEM it was > 100 µM (inactive); with NCI-H460, > 100 µM (inactive); in the assay on RXF 393, > 100 µM (inactive); in the assay with HL-60 it was > 100 µM (inactive); with SK-MEL-2, > 100 µM (inactive).
As to `C[Si](C)(C)/N=C1\N2C(=NC1(C(F)(F)F)C(F)(F)F)Sc1ccccc12`, the GI50 in the assay on TK-10, in the assay with SF-268, in the assay with A549, in the assay with OVCAR-5, in the assay with K562 and in the assay with EKVX was > 50 µM (inactive) in each case. The GI50 in the assay with 786-0, in the assay on OVCAR-3, in the assay with M14, in the assay with SW-620, in the assay on NCI-H226 and with OVCAR-4 was > 50 µM (inactive) each time. Moreover, the GI50 with CCRF-CEM, in the assay on NCI-H460, in the assay on RXF 393, in the assay on HOP-62, with HL-60 and in the assay on SK-MEL-2 was > 50 µM (inactive) each time.
For the compound `COC(=O)C1(C(=O)OC)CC(=O)c2cc3c(cc2-c2c(cc(OC)c(OC)c2OC)C1)OCO3`, the GI50 in the assay on TK-10 was > 211 µM (inactive); in the assay with SF-268, > 211 µM (inactive); in the assay on A549, > 211 µM (inactive); in the assay on OVCAR-5, 88.3 µM (inactive); in the assay with K562, 139 µM (inactive); in the assay on EKVX, > 211 µM (inactive). For the same compound, the GI50 with SK-MEL-28 was > 211 µM (inactive); in the assay with 786-0, > 211 µM (inactive); with OVCAR-3 it was 98.2 µM (inactive); in the assay with SW-620, > 211 µM (inactive); in the assay with NCI-H226 it was 95.5 µM (inactive); in the assay on CCRF-CEM it was 173 µM (inactive). In addition, the GI50 with NCI-H460 was > 211 µM (inactive); with RXF 393, 54.7 µM (inactive); in the assay with HOP-62, > 211 µM (inactive); with HL-60 it was 67.1 µM (inactive); with SK-MEL-2 it was > 211 µM (inactive).
As for `COC(=O)/C=C(/OC)[C@H](C)[C@H](/C=C/c1csc(-c2csc(C(C)C)n2)n1)OC`, the GI50 in the assay on SF-268 is 0.647 µM (active); with A549, 0.136 µM (active); with OVCAR-5, > 100 µM (inactive); in the assay on K562, 0.52 µM (active); in the assay on EKVX it was 0.721 µM (active); in the assay with SK-MEL-28 it was 63.5 µM (inactive). Also, the GI50 with 786-0 is 7.45 µM (inactive); in the assay on OVCAR-3 it was 0.35 µM (active); with M14, 1.44 µM (inactive); in the assay on SW-620, 0.741 µM (active); with NCI-H226, 4.19 µM (inactive); in the assay with OVCAR-4, 0.416 µM (active). In addition, the GI50 with CCRF-CEM was 18.2 µM (inactive); with NCI-H460 it was 0.0521 µM (active); in the assay on RXF 393 it was 1.35 µM (inactive); in the assay on HOP-62 it was > 43.3 µM (inactive); with HL-60 it was 2.51 µM (inactive); in the assay on SK-MEL-2 it was 28 µM (inactive).
Regarding `O=C1C(Cl)C(c2cccc(O)c2)N1n1cnc2ccccc2c1=O` (centres undefined), the GI50 in the assay with TK-10 is > 100 µM (inactive); with SF-268, > 100 µM (inactive); in the assay on A549, > 100 µM (inactive); with OVCAR-5, > 100 µM (inactive); in the assay on K562, 49.1 µM (inactive); in the assay with EKVX, 64.3 µM (inactive). Further, the GI50 in the assay on SK-MEL-28 is > 100 µM (inactive); in the assay on 786-0, > 100 µM (inactive); with OVCAR-3, > 100 µM (inactive); with M14, > 100 µM (inactive); in the assay on SW-620, > 100 µM (inactive); with NCI-H226, 21.6 µM (inactive). In addition, the GI50 in the assay with OVCAR-4 was > 100 µM (inactive); in the assay on NCI-H460, > 100 µM (inactive); in the assay on RXF 393 it was > 100 µM (inactive); in the assay with HOP-62 it was > 100 µM (inactive); in the assay on HL-60, 64.7 µM (inactive); with SK-MEL-2 it was > 100 µM (inactive).
With `CC1=Nc2ccccc2C1C(Cc1ccccc1N)c1c(C)[nH]c2ccccc12` (centres undefined), the GI50 in the assay on TK-10 is 16.9 µM (inactive); in the assay with SF-268, 8.17 µM (inactive); with A549 it was 18.3 µM (inactive); with OVCAR-5 it was 17.6 µM (inactive); with K562, 19.5 µM (inactive); in the assay on EKVX, 20.5 µM (inactive). For the same compound, the GI50 is 18.8 µM (inactive) in the assay with SK-MEL-28; 15.1 µM (inactive) in the assay with 786-0; 15.1 µM (inactive) with OVCAR-3; 15 µM (inactive) in the assay on M14; 15.5 µM (inactive) in the assay on SW-620; 15 µM (inactive) in the assay with NCI-H226. The GI50 is 17.7 µM (inactive) in the assay with CCRF-CEM; 17.2 µM (inactive) in the assay with NCI-H460; 20.2 µM (inactive) in the assay on RXF 393; 14.4 µM (inactive) with HOP-62; 14 µM (inactive) in the assay on HL-60; 5.92 µM (inactive) with SK-MEL-2.
On to `COc1ccccc1NC(=O)C1=C(C)NC(C)=C(C(=O)Nc2ccccc2OC)C1c1ccc(C)cc1`, for which the GI50 in the assay with TK-10 was 69.5 µM (inactive); with SF-268, > 100 µM (inactive); in the assay with OVCAR-5, 70.3 µM (inactive); in the assay on K562, 18.2 µM (inactive); in the assay on EKVX it was 47.6 µM (inactive); with SK-MEL-28, > 100 µM (inactive). Besides, the GI50 in the assay with 786-0 is > 100 µM (inactive); in the assay on OVCAR-3, > 100 µM (inactive); with M14, 64.6 µM (inactive); in the assay with SW-620, > 100 µM (inactive); with NCI-H226 it was 10.5 µM (inactive); in the assay with OVCAR-4, 43.4 µM (inactive). The GI50 with NCI-H460 was 31.8 µM (inactive); in the assay on RXF 393, 35 µM (inactive); in the assay on HOP-62, > 100 µM (inactive); in the assay with SK-MEL-2, 48.2 µM (inactive).
Regarding `O=C(Oc1ccc2c(-c3ccccc3)c(C(=O)Nc3ccc(Cl)cc3)c(=O)oc2c1)c1ccccc1`, the GI50 in the assay with TK-10, in the assay with A549, with K562, with EKVX, in the assay on SK-MEL-28 and in the assay on 786-0 was > 100 µM (inactive) in each case. Besides, the GI50 in the assay with OVCAR-3, in the assay on M14, in the assay with SW-620, in the assay with NCI-H226, in the assay on CCRF-CEM and with NCI-H460 was > 100 µM (inactive) in each case. Further, the GI50 in the assay with RXF 393, with HOP-62, in the assay on HL-60 and with SK-MEL-2 was > 100 µM (inactive) each time.
As for `COC(=O)C1=C(C(=O)OC)C(C(=O)OC)C(C(=O)OC)=C1C(=O)OC`, the GI50 in the assay on TK-10, in the assay on SF-268, in the assay on A549, in the assay on OVCAR-5, with K562 and in the assay on EKVX was > 100 µM (inactive) each time. For the same compound, the GI50 with SK-MEL-28, with 786-0, with OVCAR-3, in the assay with M14, with SW-620 and with OVCAR-4 was > 100 µM (inactive) throughout. Also, the GI50 with CCRF-CEM, with NCI-H460, in the assay on RXF 393, in the assay on HOP-62, in the assay on HL-60 and in the assay with SK-MEL-2 was > 100 µM (inactive) each time.

(Values after ChEMBL document CHEMBL1201862, “PubChem BioAssay data set” (2004).)
